Source: ChEMBL document CHEMBL4190295, “One-pot three steps cascade synthesis of novel isoandrographolide analogues and their cytotoxic activity” (Eur J Med Chem, 2017)

How the values were obtained:
Format in all cases: functional, cell-based
[1] = system: MCF7; experiment: Cytotoxicity against human MCF7 cells assessed as reduction in cell viability by SRB assay
[2] = system: KB; experiment: Cytotoxicity against human KB cells assessed as reduction in cell viability by SRB assay
[3] = system: P388; experiment: Cytotoxicity against mouse P388 cells assessed as reduction in cell viability by SRB assay
[4] = Cytotoxicity against rat ASK cells assessed as reduction in cell viability by SRB assay
[5] = system: A549; experiment: Cytotoxicity against human A549 cells assessed as reduction in cell viability by SRB assay
[6] = system: HT-29; experiment: Cytotoxicity against human HT-29 cells assessed as reduction in cell viability by SRB assay

SMILES: CC(=O)O[C@@H]1CC[C@]2(C)[C@H](CC[C@]3(CNc4cccc(F)c4)O[C@H](C4=CCOC4=O)C[C@H]32)[C@]1(C)COC(c1ccccc1)(c1ccccc1)c1ccccc1
- IC50 [1]: > 50 µM
- IC50 [2]: > 50 µM
- IC50 [3]: > 50 µM
- IC50 [4]: > 50 µM
- IC50 [5]: > 50 µM
- IC50 [6]: > 50 µM

SMILES: COc1ccc(NC[C@]23CC[C@@H]4[C@](C)(CO[Si](C(C)C)(C(C)C)C(C)C)[C@H](OC(C)=O)CC[C@@]4(C)[C@@H]2C[C@@H](C2=CCOC2=O)O3)cc1OC
- IC50 [1]: 4.7 µM
- IC50 [2]: 17.9 µM
- IC50 [3]: 4.98 µM
- IC50 [4]: 4.61 µM
- IC50 [5]: 6.08 µM
- IC50 [6]: 5.24 µM

SMILES: CC(=O)O[C@@H]1CC[C@]2(C)[C@H](CC[C@]3(CNc4ccc(Br)cc4)O[C@H](C4=CCOC4=O)C[C@H]32)[C@]1(C)CO[Si](C(C)C)(C(C)C)C(C)C
- IC50 [1]: > 50 µM
- IC50 [2]: > 50 µM
- IC50 [3]: 40.5 µM
- IC50 [4]: 29.7 µM
- IC50 [5]: > 50 µM
- IC50 [6]: > 50 µM

SMILES: CC(=O)OC[C@@]1(C)[C@H]2CC[C@]3(CNc4ccccc4)O[C@H](C4=CCOC4=O)C[C@H]3[C@]2(C)CC[C@H]1OC(C)=O
- IC50 [1]: > 50 µM
- IC50 [2]: > 50 µM
- IC50 [3]: 40 µM
- IC50 [4]: > 50 µM
- IC50 [5]: > 50 µM
- IC50 [6]: 25.7 µM

SMILES: CC(=O)O[C@@H]1CC[C@]2(C)[C@H](CC[C@]3(CNc4cccc(F)c4)O[C@H](C4=CCOC4=O)C[C@H]32)[C@]1(C)CO[Si](c1ccccc1)(c1ccccc1)C(C)(C)C
- IC50 [1]: > 50 µM
- IC50 [2]: > 50 µM
- IC50 [3]: > 50 µM
- IC50 [4]: 44.8 µM
- IC50 [5]: > 50 µM
- IC50 [6]: > 50 µM

SMILES: Cc1c2ccncc2c(C)c2c1[nH]c1ccccc12 [ELLIPTECINE]
- IC50 [1]: 1.53 µM
- IC50 [2]: 1.87 µM
- IC50 [3]: 1.34 µM
- IC50 [4]: 2.17 µM
- IC50 [5]: 1.2 µM
- IC50 [6]: 2.06 µM

SMILES: CC(=O)O[C@@H]1CC[C@]2(C)[C@H](CC[C@]3(CNc4ccc(Br)cc4)O[C@H](C4=CCOC4=O)C[C@H]32)[C@]1(C)COC(c1ccccc1)(c1ccccc1)c1ccccc1
- IC50 [1]: > 50 µM
- IC50 [2]: > 50 µM
- IC50 [3]: > 50 µM
- IC50 [4]: > 50 µM
- IC50 [5]: > 50 µM
- IC50 [6]: > 50 µM

SMILES: COc1ccc(NC[C@]23CC[C@@H]4[C@](C)(COC(c5ccccc5)(c5ccccc5)c5ccccc5)[C@H](OC(C)=O)CC[C@@]4(C)[C@@H]2C[C@@H](C2=CCOC2=O)O3)cc1OC
- IC50 [1]: 23.1 µM
- IC50 [2]: > 50 µM
- IC50 [3]: 30.5 µM
- IC50 [4]: 6.51 µM
- IC50 [5]: > 50 µM
- IC50 [6]: > 50 µM

SMILES: COc1ccc(NC[C@]23CC[C@@H]4[C@](C)(COC(C)=O)[C@H](OC(C)=O)CC[C@@]4(C)[C@@H]2C[C@@H](C2=CCOC2=O)O3)cc1OC
- IC50 [1]: > 50 µM
- IC50 [2]: > 50 µM
- IC50 [3]: 28.8 µM
- IC50 [4]: > 50 µM
- IC50 [5]: > 50 µM
- IC50 [6]: 24.1 µM

SMILES: CC(=O)OC[C@@]1(C)[C@H]2CC[C@]3(CNc4cccc(F)c4)O[C@H](C4=CCOC4=O)C[C@H]3[C@]2(C)CC[C@H]1OC(C)=O
- IC50 [1]: 7.41 µM
- IC50 [2]: 20.8 µM
- IC50 [3]: 6.85 µM
- IC50 [4]: 22.3 µM
- IC50 [5]: 6.52 µM
- IC50 [6]: 5.87 µM

SMILES: CC(=O)O[C@@H]1CC[C@]2(C)[C@H](CC[C@]3(CNc4ccccc4F)O[C@H](C4=CCOC4=O)C[C@H]32)[C@]1(C)CO[Si](C(C)C)(C(C)C)C(C)C
- IC50 [1]: 15.3 µM
- IC50 [2]: 30.8 µM
- IC50 [3]: 21.4 µM
- IC50 [4]: 8.05 µM
- IC50 [5]: 21 µM
- IC50 [6]: 30.2 µM

SMILES: CC(=O)OC[C@@]1(C)[C@H]2CC[C@]3(CNc4ccc(Br)cc4)O[C@H](C4=CCOC4=O)C[C@H]3[C@]2(C)CC[C@H]1OC(C)=O
- IC50 [1]: 6.93 µM
- IC50 [2]: 21.1 µM
- IC50 [3]: 7.47 µM
- IC50 [4]: 8.4 µM
- IC50 [5]: 6.14 µM
- IC50 [6]: 6.09 µM

SMILES: COc1ccc(NC[C@]23CC[C@@H]4[C@](C)(CO[Si](c5ccccc5)(c5ccccc5)C(C)(C)C)[C@H](OC(C)=O)CC[C@@]4(C)[C@@H]2C[C@@H](C2=CCOC2=O)O3)cc1OC
- IC50 [1]: 35.8 µM
- IC50 [2]: > 50 µM
- IC50 [3]: 27.5 µM
- IC50 [4]: 9.37 µM
- IC50 [5]: 48.6 µM
- IC50 [6]: > 50 µM

SMILES: C=C1CC[C@@H]2[C@](C)(CO)[C@H](O)CC[C@@]2(C)[C@@H]1C/C=C1/C(=O)OC[C@H]1O [ANDROGRAPHOLIDE]
- IC50 [1]: 15.4 µM
- IC50 [2]: 27.4 µM
- IC50 [3]: 2.25 µM
- IC50 [4]: 16.2 µM
- IC50 [5]: 27.9 µM
- IC50 [6]: 9.34 µM

SMILES: CC(=O)O[C@@H]1CC[C@]2(C)[C@H](CC[C@]3(CNc4ccccc4)O[C@H](C4=CCOC4=O)C[C@H]32)[C@]1(C)CO[Si](C)(C)C(C)(C)C
- IC50 [1]: 5.44 µM
- IC50 [2]: 21.2 µM
- IC50 [3]: 5.19 µM
- IC50 [4]: 5.94 µM
- IC50 [5]: 7.8 µM
- IC50 [6]: 8.5 µM

SMILES: CC(=O)O[C@@H]1CC[C@]2(C)[C@H](CC[C@]3(CNc4ccccc4)O[C@H](C4=CCOC4=O)C[C@H]32)[C@]1(C)CO[Si](C(C)C)(C(C)C)C(C)C
- IC50 [1]: 8.33 µM
- IC50 [2]: 18.8 µM
- IC50 [3]: 6.54 µM
- IC50 [4]: 6.1 µM
- IC50 [5]: 9.43 µM
- IC50 [6]: 17.5 µM

SMILES: CC(=O)O[C@@H]1CC[C@]2(C)[C@H](CC[C@]3(CNc4ccccc4F)O[C@H](C4=CCOC4=O)C[C@H]32)[C@]1(C)CO[Si](c1ccccc1)(c1ccccc1)C(C)(C)C
- IC50 [1]: > 50 µM
- IC50 [2]: > 50 µM
- IC50 [3]: > 50 µM
- IC50 [4]: 39.7 µM
- IC50 [5]: > 50 µM
- IC50 [6]: > 50 µM

SMILES: CC(=O)O[C@@H]1CC[C@]2(C)[C@H](CC[C@]3(CNc4cccc(F)c4)O[C@H](C4=CCOC4=O)C[C@H]32)[C@]1(C)CO[Si](C)(C)C(C)(C)C
- IC50 [1]: 8.64 µM
- IC50 [2]: 27.4 µM
- IC50 [3]: 6.44 µM
- IC50 [4]: 6.1 µM
- IC50 [5]: 21.5 µM
- IC50 [6]: 26.2 µM

SMILES: CC(=O)O[C@@H]1CC[C@]2(C)[C@H](CC[C@]3(CNc4ccc(Br)cc4)O[C@H](C4=CCOC4=O)C[C@H]32)[C@]1(C)CO[Si](C)(C)C(C)(C)C
- IC50 [1]: 12.9 µM
- IC50 [2]: 25.7 µM
- IC50 [3]: 6.39 µM
- IC50 [4]: 7.35 µM
- IC50 [5]: 15 µM
- IC50 [6]: 27.7 µM

SMILES: COc1ccc(NC[C@]23CC[C@@H]4[C@](C)(CO[Si](C)(C)C(C)(C)C)[C@H](OC(C)=O)CC[C@@]4(C)[C@@H]2C[C@@H](C2=CCOC2=O)O3)cc1OC
- IC50 [1]: 5.4 µM
- IC50 [2]: 11.5 µM
- IC50 [3]: 5.49 µM
- IC50 [4]: 5.13 µM
- IC50 [5]: 5.3 µM
- IC50 [6]: 6.16 µM

SMILES: CC(=O)O[C@@H]1CC[C@]2(C)[C@H](CC[C@]3(CNc4ccccc4F)O[C@H](C4=CCOC4=O)C[C@H]32)[C@]1(C)COC(c1ccccc1)(c1ccccc1)c1ccccc1
- IC50 [1]: > 50 µM
- IC50 [2]: > 50 µM
- IC50 [3]: > 50 µM
- IC50 [4]: > 50 µM
- IC50 [5]: > 50 µM
- IC50 [6]: > 50 µM

SMILES: CC(=O)O[C@@H]1CC[C@]2(C)[C@H](CC[C@]3(CNc4ccccc4)O[C@H](C4=CCOC4=O)C[C@H]32)[C@]1(C)CO[Si](c1ccccc1)(c1ccccc1)C(C)(C)C
- IC50 [1]: > 50 µM
- IC50 [2]: > 50 µM
- IC50 [3]: 45.3 µM
- IC50 [4]: 9.32 µM
- IC50 [5]: > 50 µM
- IC50 [6]: > 50 µM

SMILES: CC(=O)OC[C@@]1(C)[C@H]2CC[C@]3(CNc4ccccc4F)O[C@H](C4=CCOC4=O)C[C@H]3[C@]2(C)CC[C@H]1OC(C)=O
- IC50 [1]: 11.8 µM
- IC50 [2]: 26.5 µM
- IC50 [3]: 7.5 µM
- IC50 [4]: 27.8 µM
- IC50 [5]: 8.45 µM
- IC50 [6]: 6.5 µM

SMILES: CC(=O)O[C@@H]1CC[C@]2(C)[C@H](CC[C@]3(CNc4cccc(F)c4)O[C@H](C4=CCOC4=O)C[C@H]32)[C@]1(C)CO[Si](C(C)C)(C(C)C)C(C)C
- IC50 [1]: 12.7 µM
- IC50 [2]: 32.9 µM
- IC50 [3]: 7.95 µM
- IC50 [4]: 6.91 µM
- IC50 [5]: 24.5 µM
- IC50 [6]: 30.1 µM

SMILES: CC(=O)O[C@@H]1CC[C@]2(C)[C@H](CC[C@]3(CNc4ccccc4F)O[C@H](C4=CCOC4=O)C[C@H]32)[C@]1(C)CO[Si](C)(C)C(C)(C)C
- IC50 [1]: 4.45 µM
- IC50 [2]: 6.49 µM
- IC50 [3]: 4.56 µM
- IC50 [4]: 3.33 µM
- IC50 [5]: 6.1 µM
- IC50 [6]: 5.59 µM

SMILES: CC(=O)O[C@@H]1CC[C@]2(C)[C@H](CC[C@]3(CNc4ccccc4)O[C@H](C4=CCOC4=O)C[C@H]32)[C@]1(C)COC(c1ccccc1)(c1ccccc1)c1ccccc1
- IC50 [1]: > 50 µM
- IC50 [2]: > 50 µM
- IC50 [3]: > 50 µM
- IC50 [4]: 29.1 µM
- IC50 [5]: > 50 µM
- IC50 [6]: > 50 µM

SMILES: CC(=O)O[C@@H]1CC[C@]2(C)[C@H](CC[C@]3(CNc4ccc(Br)cc4)O[C@H](C4=CCOC4=O)C[C@H]32)[C@]1(C)CO[Si](c1ccccc1)(c1ccccc1)C(C)(C)C
- IC50 [1]: > 50 µM
- IC50 [2]: > 50 µM
- IC50 [3]: 48.3 µM
- IC50 [4]: > 50 µM
- IC50 [5]: 47.8 µM
- IC50 [6]: > 50 µM
